Assay results reported in US20240409585A1, “MACROCYCLIC IMMUNOMODULATORS” (priority 2021, published 2024).
Numbered stars: 1 amine (or outer) side, 2 acyl side, 3 side chain; on linkers, the order of the positions; unused ones are H or OH. Bridge positions count the residues as written; N and C are the ends. Square brackets hold non-standard residues; d marks the D form. Peptide text beside a SMILES is read from it. * marks the point of attachment. ξ: configuration not given here. X39 = COc1cccc(-c2ccc(C[C@H](N[*:1])C(=O)[*:2])cc2)c1; Phe(4-CONH2) = NC(=O)c1ccc(C[C@H](N)C(=O)O)cc1; Phe(4-COOH) = N[C@@H](Cc1ccc(C(=O)O)cc1)C(=O)O; Phe(4-CH2NH2) = NCc1ccc(C[C@H](N)C(=O)O)cc1; Bip = N[C@@H](Cc1ccc(-c2ccccc2)cc1)C(=O)O; Phe(3-OMe) = COc1cccc(C[C@H](N)C(=O)O)c1; Phe(3-Me) = Cc1cccc(C[C@H](N)C(=O)O)c1; Val(3-OH) = CC(C)(O)[C@H](N)C(=O)O; 2Pal = N[C@@H](Cc1ccccn1)C(=O)O; 4Pal = N[C@@H](Cc1ccncc1)C(=O)O; Cha = N[C@@H](CC1CCCCC1)C(=O)O; Cit = NC(=O)NCCC[C@H](N)C(=O)O; Ile(3ξ) = CCC(C)[C@H](N)C(=O)O; Thr(3ξ) = CC(O)[C@H](N)C(=O)O; Carboxymethyl = O=C(O)C*; NMeA = CN[C@@H](C)C(=O)O; Pra = C#CC[C@H](N)C(=O)O; Dab = NCC[C@H](N)C(=O)O; Nva = CCC[C@H](N)C(=O)O; Dap = NC[C@H](N)C(=O)O

molecular target: T1, PE-labeled human PD-L1-Ig binding to Jurkat cell line over-expressing human PD-1 (Jurkat-PD-1) (Homo sapiens, UniProt Q15116); assay: Jurkat-PD-1 Cell Binding High-Content Screening Assay (CBA): Method 1; settings: Jurkat-hPD-1 cells, PE-labeled PD-L1-Ig 20 nM final; read-out: Jurkat HPDL1 PD1 IC50 (uM) (Method 1)
T1 construct: expressed in transfected cells; host or cells: Jurkat
T1 sequence (Q15116 25-288): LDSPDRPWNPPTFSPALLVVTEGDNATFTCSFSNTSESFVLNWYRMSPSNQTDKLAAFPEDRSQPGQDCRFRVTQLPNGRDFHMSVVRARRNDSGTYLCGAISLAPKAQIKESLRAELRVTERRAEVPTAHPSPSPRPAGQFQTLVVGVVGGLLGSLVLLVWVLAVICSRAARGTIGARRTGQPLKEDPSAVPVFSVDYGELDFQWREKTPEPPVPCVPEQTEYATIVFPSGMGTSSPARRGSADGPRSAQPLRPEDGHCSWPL

Row | IC50 [µM] | Structure (SMILES)
1 | 0.04 | CC(C)C[C@@H]1NC(=O)[C@H](CCN)NC(=O)[C@@H](CC(C)C)NC(=O)[C@H](C)N(C)C(=O)[C@H](CCCNC(=N)N)NC(=O)[C@H](Cc2ccc(-c3ccccc3)cc2)NC(=O)[C@H](C(C)C)NC(=O)[C@H](Cc2c[nH]c3ccccc23)NC(=O)[C@H](CC(=O)O)NC(=O)[C@H](Cc2ccc(O)cc2)NC(=O)[C@H](CCCNC(=N)N)NC(=O)CSC[C@@H](C(=O)N[C@@H](C)C(N)=O)NC(=O)[C@H]([C@@H](C)O)NC(=O)[C@H](C(C)C)NC1=O [Compound 1343] ({CH2CO}-RYDWV[Bip]R[NMeA][dL][Dab]LVTCA-NH2; thioether N-14)
2 | 0.37 | COc1cccc(-c2ccc(C[C@@H]3NC(=O)[C@H](C(C)C)NC(=O)[C@H](Cc4c[nH]c5ccccc45)NC(=O)[C@H](CC(=O)O)NC(=O)[C@H](Cc4ccc(O)cc4)NC(=O)[C@H](CC(N)=O)NC(=O)CSC[C@@H](C(=O)N[C@@H](C)C(N)=O)NC(=O)[C@H]([C@@H](C)O)NC(=O)[C@H](C(C)C)NC(=O)[C@H](CC(C)C)NC(=O)[C@H](CCN)NC(=O)[C@@H](CC(C)C)NC(=O)[C@H](C)N(C)C(=O)[C@H](CCCNC(=N)N)NC3=O)cc2)c1 [Compound 1211] ({CH2CO}-NYDWV[X39]R[NMeA][dL][Dab]LVTCA-NH2; thioether N-14)
3 | 0.01 | CC(C)C[C@@H]1NC(=O)[C@H](Cc2c[nH]c3ccccc23)NC(=O)[C@H](CC(=O)O)NC(=O)[C@H](Cc2ccc(O)cc2)NC(=O)[C@H](Cc2ccccc2)NC(=O)CSC[C@@H](C(=O)N[C@@H](C)C(N)=O)NC(=O)[C@H](CO)NC(=O)[C@H](CCCCN)NC(=O)[C@H](CC(C)C)NC(=O)[C@H](CC(N)=O)NC(=O)[C@@H](CC(C)C)NC(=O)[C@H](C)N(C)C(=O)[C@H](C(C)C)NC(=O)[C@H](Cc2ccc(-c3ccccc3)cc2)NC1=O [Compound 1536] ({CH2CO}-FYDWL[Bip]V[NMeA][dL]NLKSCA-NH2; thioether N-14)
4 | 0.01 | CC(C)C[C@@H]1NC(=O)[C@H](CCN)NC(=O)[C@@H](CC(C)C)NC(=O)[C@H](C)N(C)C(=O)[C@H](CCCNC(=N)N)NC(=O)[C@H](Cc2ccc(-c3ccccc3)cc2)NC(=O)[C@H](C(C)C)NC(=O)[C@H](Cc2c[nH]c3ccccc23)NC(=O)[C@H](CC(=O)O)NC(=O)[C@H](Cc2ccc(OCC(=O)O)cc2)NC(=O)[C@H](Cc2ccncc2)NC(=O)CSC[C@@H](C(=O)N[C@@H](C)C(N)=O)NC(=O)[C@H]([C@@H](C)O)NC(=O)[C@H](C(C)C)NC1=O [Compound 1443] ({CH2CO}-[4Pal]Y(Carboxymethyl)DWV[Bip]R[NMeA][dL][Dab]LVTCA-NH2; thioether N-14)
5 | 0.02 | Cc1cccc(C[C@@H]2NC(=O)[C@H](CC(=O)O)NC(=O)[C@H](Cc3ccc(OCC(=O)O)cc3)NC(=O)[C@H](Cc3ccncc3)NC(=O)CSC[C@@H](C(=O)N[C@@H](CO)C(N)=O)NC(=O)[C@H](CO)NC(=O)[C@H](C(C)(C)O)NC(=O)[C@H](CC3CCCCC3)NC(=O)[C@H](CCN)NC(=O)[C@@H](CC(C)C)NC(=O)[C@H](C)N(C)C(=O)[C@H](Cc3ccc(C(=O)O)cc3)NC(=O)[C@H](Cc3ccc(-c4ccccc4)cc3)NC(=O)[C@H](Cc3ccc(C(N)=O)cc3)NC2=O)c1 [Compound 2180] ({CH2CO}-[4Pal]Y(Carboxymethyl)D[Phe(3-Me)][Phe(4-CONH2)][Bip][Phe(4-COOH)][NMeA][dL][Dab][Cha][Val(3-OH)]SCS-NH2; thioether N-14)
6 | 0.01 | CC(C)C[C@@H]1NC(=O)[C@H](CCN)NC(=O)[C@@H](CC(C)C)NC(=O)[C@H](C)N(C)C(=O)[C@H](C(C)C)NC(=O)[C@H](Cc2ccc(-c3ccccc3)cc2)NC(=O)[C@H](C(C)C)NC(=O)[C@H](Cc2c[nH]c3ccccc23)NC(=O)[C@H](CC(=O)O)NC(=O)[C@H](Cc2ccc(O)cc2)NC(=O)[C@H](Cc2cnc[nH]2)NC(=O)CSC[C@@H](C(=O)N[C@@H](C)C(N)=O)NC(=O)[C@H]([C@@H](C)O)NC(=O)[C@H](C(C)C)NC1=O [Compound 1358] ({CH2CO}-HYDWV[Bip]V[NMeA][dL][Dab]LVTCA-NH2; thioether N-14)
7 | 0.03 | CC(C)C[C@@H]1NC(=O)[C@H](Cc2c[nH]c3ccccc23)NC(=O)[C@H](CC(=O)O)NC(=O)[C@H](Cc2ccncc2)NC(=O)[C@H](CN)NC(=O)CSC[C@@H](C(=O)N[C@@H](C)C(N)=O)NC(=O)[C@H](CO)NC(=O)[C@H](C(C)C)NC(=O)[C@H](CC(C)C)NC(=O)[C@H](CC(N)=O)NC(=O)[C@@H](C)NC(=O)[C@H](C)N(C)C(=O)[C@H](C(C)C)NC(=O)[C@H](Cc2ccc(-c3ccccc3)cc2)NC1=O [Compound 1561] ({CH2CO}-[Dap][4Pal]DWL[Bip]V[NMeA][dA]NLVSCA-NH2; thioether N-14)
8 | 0.01 | COc1cccc(C[C@@H]2NC(=O)[C@H](CC(=O)O)NC(=O)[C@H](Cc3cccc(C)c3)NC(=O)[C@H](CN)NC(=O)CSC[C@@H](C(=O)N[C@@H](C)C(N)=O)NC(=O)[C@@H](CO)NC(=O)[C@H](C(C)C)NC(=O)[C@H](CC(C)C)NC(=O)[C@H](CC(N)=O)NC(=O)[C@@H](C)NC(=O)[C@H](C)N(C)C(=O)[C@H](C(C)C)NC(=O)[C@H](Cc3ccc(-c4ccccc4)cc3)NC(=O)[C@@H](CC(C)C)NC2=O)c1 [Compound 1464] ({CH2CO}-[Dap][Phe(3-Me)]D[Phe(3-OMe)][dL][Bip]V[NMeA][dA]NLV[dS]CA-NH2; thioether N-14)
9 | 0.05 | CC(C)C[C@@H]1NC(=O)[C@H](CCCNC(=N)N)NC(=O)[C@@H](CC(C)C)NC(=O)[C@H](C)N(C)C(=O)[C@H](CCCNC(N)=O)NC(=O)[C@H](Cc2ccc(-c3ccccc3)cc2)NC(=O)[C@H](C(C)C)NC(=O)[C@H](Cc2c[nH]c3ccccc23)NC(=O)[C@H](CC(=O)O)NC(=O)[C@H](Cc2ccc(O)cc2)NC(=O)[C@H](CC(N)=O)NC(=O)CSC[C@@H](C(=O)NCC(N)=O)NC(=O)[C@H](CO)NC(=O)[C@H](C(C)C)NC1=O [Compound 1246] ({CH2CO}-NYDWV[Bip][Cit][NMeA][dL]RLVSCG-NH2; thioether N-14)
10 | 0.03 | CC[C@H](C)[C@@H]1NC(=O)[C@H](Cc2ccc(-c3ccccc3)cc2)NC(=O)[C@H](C(C)C)NC(=O)[C@H](Cc2c[nH]c3ccccc23)NC(=O)[C@H](CC(=O)O)NC(=O)[C@H](Cc2ccc(O)cc2)NC(=O)[C@H](Cc2ccc(OCC(=O)O)cc2)NC(=O)CSC[C@@H](C(=O)N[C@@H](C)C(N)=O)NC(=O)[C@H]([C@@H](C)O)NC(=O)[C@H](C(C)C)NC(=O)[C@H](CC2CCCCC2)NC(=O)[C@H](CCCNC(=N)N)NC(=O)[C@@H](CC(C)C)NC(=O)[C@H](C)N(C)C1=O [Compound 1493] ({CH2CO}-Y(Carboxymethyl)YDWV[Bip]I[NMeA][dL]R[Cha]VTCA-NH2; thioether N-14)
11 | 0.03 | C#CC[C@H](NC(=O)[C@@H](CC(N)=O)NC(=O)[C@@H]1CSCC(=O)N[C@@H](Cc2ccc(OCC(=O)O)cc2)C(=O)N[C@@H](Cc2ccc(OCC(=O)O)cc2)C(=O)N[C@@H](CC(=O)O)C(=O)N[C@@H](Cc2c[nH]c3ccccc23)C(=O)N[C@@H](C(C)C)C(=O)N[C@@H](Cc2ccc(-c3ccccc3)cc2)C(=O)N[C@@H]([C@@H](C)CC)C(=O)N(C)[C@@H](C)C(=O)N[C@H](CC(C)C)C(=O)N[C@@H](CCC)C(=O)N[C@@H](CC2CCCCC2)C(=O)N[C@@H](C(C)(C)O)C(=O)N[C@@H](CO)C(=O)N1)C(N)=O [Compound 1718] ({CH2CO}-Y(Carboxymethyl)Y(Carboxymethyl)DWV[Bip]I[NMeA][dL][Nva][Cha][Val(3-OH)]SC[dN][Pra]-NH2; thioether N-14)
12 | 0.09 | CCC(C)[C@@H]1NC(=O)[C@H](Cc2ccc(-c3ccccc3)cc2)NC(=O)[C@H](C(C)C)NC(=O)[C@H](Cc2c[nH]c3ccccc23)NC(=O)[C@H](CC(=O)O)NC(=O)[C@H](Cc2ccc(O)cc2)NC(=O)[C@H](Cc2ccncc2)NC(=O)CSC[C@@H](C(=O)N[C@@H](C)C(N)=O)NC(=O)[C@H](C(C)O)NC(=O)[C@H](C(C)C)NC(=O)[C@H](CC2CCCCC2)NC(=O)[C@H](Cc2ccc(CN)cc2)NC(=O)[C@@H](CC(C)C)NC(=O)[C@H](C)N(C)C1=O (stereo partly drawn) [Compound 2049] ({CH2CO}-[4Pal]YDWV[Bip][Ile(3ξ)][NMeA][dL][Phe(4-CH2NH2)][Cha]V[Thr(3ξ)]CA-NH2; thioether N-14)
13 | 0.01 | Cc1cccc(C[C@@H]2NC(=O)[C@H](CC(=O)O)NC(=O)[C@H](Cc3ccc(C(=O)O)cc3)NC(=O)[C@H](Cc3ccc(OCC(=O)O)cc3)NC(=O)CSC[C@@H](C(=O)N[C@@H](CO)C(N)=O)NC(=O)[C@H](CO)NC(=O)[C@H](C(C)C)NC(=O)[C@H](CC(C)C)NC(=O)[C@H](CCN)NC(=O)[C@@H](CC(C)C)NC(=O)[C@H](C)N(C)C(=O)[C@H](C(C)C)NC(=O)[C@H](Cc3ccc(-c4ccccc4)cc3)NC(=O)[C@H](CC(C)C)NC2=O)c1 [Compound 2111] ({CH2CO}-Y(Carboxymethyl)[Phe(4-COOH)]D[Phe(3-Me)]L[Bip]V[NMeA][dL][Dab]LVSCS-NH2; thioether N-14)
14 | 0.19 | CC(C)C[C@@H]1NC(=O)[C@H](CCN)NC(=O)[C@@H](CC(C)C)NC(=O)[C@H](C)N(C)C(=O)[C@H](CCCNC(N)=O)NC(=O)[C@H](Cc2ccc(-c3ccccc3)cc2)NC(=O)[C@H](C(C)C)NC(=O)[C@H](Cc2c[nH]c3ccccc23)NC(=O)[C@H](CC(=O)O)NC(=O)[C@H](Cc2ccc(OCC(=O)O)cc2)NC(=O)[C@H](Cc2ccccn2)NC(=O)CSC[C@@H](C(=O)N[C@@H](C)C(N)=O)NC(=O)[C@H]([C@@H](C)O)NC(=O)[C@H](C(C)C)NC1=O [Compound 1329] ({CH2CO}-[2Pal]Y(Carboxymethyl)DWV[Bip][Cit][NMeA][dL][Dab]LVTCA-NH2; thioether N-14)
15 | 0.01 | Cc1cccc(C[C@@H]2NC(=O)[C@H](CC(=O)O)NC(=O)[C@H](Cc3ccncc3)NC(=O)[C@H](CN)NC(=O)CSC[C@@H](C(N)=O)NC(=O)[C@H](CO)NC(=O)[C@H](C(C)C)NC(=O)[C@H](CC(C)C)NC(=O)[C@H](CC(N)=O)NC(=O)[C@@H](CC(C)C)NC(=O)[C@H](C)N(C)C(=O)[C@H](C(C)C)NC(=O)[C@H](Cc3ccc(-c4ccccc4)cc3)NC(=O)[C@H](CC(C)C)NC2=O)c1 [Compound 1598] ({CH2CO}-[Dap][4Pal]D[Phe(3-Me)]L[Bip]V[NMeA][dL]NLVSC-NH2; thioether N-14)
